As a reminder, the Km is the concentration of substrate that gives half-maximal velocity. One may read the Vmax as the top rate of the reaction or transport when substrate is in excess.

The values that follow come from ChEMBL document CHEMBL4390692, “Enzymatic activation of indolequinone-substituted 5-fluorodeoxyuridine prodrugs in hypoxic cells” (Bioorg Med Chem Lett, 2019).

Activity calls are given as the source filed them. The calls are words filed in the database; no cut-off is given here.

Data set [1] relates to A549. Kind of data set: Cytotoxicity against human A549 cells at 1 uM treated 24 hrs post aerobic condition and measured after 72 hrs under aerobic condition by WST-8 assay relative to control. Format: cell-based. The following applies: a549, 72 h. On the technique in general: Formazan colour is commonly taken as a measure of viable cells.
Data set [2] has as its target T1, NADPH--cytochrome P450 reductase (Homo sapiens, UniProt P16435).
T1 sequence (P16435 whole entry): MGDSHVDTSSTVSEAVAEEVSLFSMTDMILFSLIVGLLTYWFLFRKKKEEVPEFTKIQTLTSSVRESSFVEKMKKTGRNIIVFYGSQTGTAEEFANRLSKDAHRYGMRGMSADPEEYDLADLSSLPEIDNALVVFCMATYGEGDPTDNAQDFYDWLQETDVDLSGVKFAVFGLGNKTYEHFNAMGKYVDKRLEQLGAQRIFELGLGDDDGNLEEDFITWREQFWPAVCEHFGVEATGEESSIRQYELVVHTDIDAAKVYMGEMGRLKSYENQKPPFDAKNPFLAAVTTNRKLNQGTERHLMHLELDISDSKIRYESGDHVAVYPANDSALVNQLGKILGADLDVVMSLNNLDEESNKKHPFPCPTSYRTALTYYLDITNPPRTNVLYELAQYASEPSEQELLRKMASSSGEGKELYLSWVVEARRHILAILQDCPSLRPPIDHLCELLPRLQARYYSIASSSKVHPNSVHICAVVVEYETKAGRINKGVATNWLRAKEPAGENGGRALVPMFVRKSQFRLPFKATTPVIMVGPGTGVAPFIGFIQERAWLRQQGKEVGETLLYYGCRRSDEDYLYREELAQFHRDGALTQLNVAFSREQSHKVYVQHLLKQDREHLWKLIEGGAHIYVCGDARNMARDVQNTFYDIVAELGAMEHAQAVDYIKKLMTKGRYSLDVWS
The data set is described as follows: Prodrug activation in pH 7.4 PBS buffer assessed as 3.3 ug/mL NADPH-cytochrome P450 reductase (unknown origin) mediated FdUrd formation at 0.62 mM in the presence of beta-NADPH measured after 2 hrs under hypoxic condition by reverse phase HPLC relative to control. In kind it is ADME. To be noted: pH 7.4, 2 h, 620 µM.

Data set [3] concerns A549. Kind of data set: Cytotoxicity against human A549 cells at 1 to 50 uM treated 24 hrs post hypoxic condition measured after 72 hrs under hypoxic condition by WST-8 assay relative to control. In kind it is functional, cell-based.
The target in data set [4] is T1, NADPH--cytochrome P450 reductase. The data set is described as follows: Prodrug activation in pH 7.4 PBS buffer assessed as 3.3 ug/mL NADPH-cytochrome P450 reductase (unknown origin) mediated FdUrd formation at 0.62 mM in the presence of beta-NADPH measured after 2 hrs under aerobic condition by reverse phase HPLC. In kind it is ADME. The following applies: pH 7.4, 2 h, 620 µM.

Substrate in data set [5]: COC1=CC(=O)c2c(c(Cn3c(=O)c(F)cn([C@H]4C[C@H](O)[C@@H](CO)O4)c3=O)c(C)n2C)C1=O
Kind of data set: Prodrug conversion in pH 7.4 PBS buffer assessed as NADPH-cytochrome P450 reductase (unknown origin) mediated FdUrd release by measuring Km at 0.62 mM in the presence of beta-NADPH measured after 2 hrs under hypoxic condition by Lineweaver-Burk plot analysis. In kind it is ADME, Homo sapiens.

Substrate in data set [6]: COC1=CC(=O)c2c(c(Cn3c(=O)c(F)cn([C@H]4C[C@H](O)[C@@H](CO)O4)c3=O)c(C)n2C)C1=O
The data set is described as follows: Prodrug conversion in pH 7.4 PBS buffer assessed as NADPH-cytochrome P450 reductase (unknown origin) mediated FdUrd release by measuring Km at 0.62 mM in the presence of beta-NADPH measured after 2 hrs under aerobic condition by Lineweaver-Burk plot analysis. Format: ADME, Homo sapiens.

Turning to `O=c1[nH]c(=O)n([C@H]2C[C@H](O)[C@@H](CO)O2)cc1F` [FLOXURIDINE], the Activity result with A549 [1] was “Toxic”.
`CNC1=CC(=O)c2c(c(Cn3c(=O)c(F)cn([C@H]4C[C@H](O)[C@@H](CO)O4)c3=O)c(C)n2C)C1=O`: in data set [2], the Drug metabolism result was “Metabolite_Notdetected”.
For the molecule `COC1=CC(=O)c2c(c(Cn3c(=O)c(F)cn([C@H]4C[C@H](O)[C@@H](CO)O4)c3=O)c(C)n2C)C1=O`, the result in the data set with A549 [3] was Active. The Drug metabolism result in data set [4] is on record as “Metabolite_Notdetected”. For the same molecule, the Activity result with A549 [1] is “Non-Toxic”.

B1: NADPH--cytochrome P450 reductase (Homo sapiens) (protein)
chain: T1 sequence (P16435 whole entry)
Take B1: in data set [5], the Michaelis constant (Km) came to 1000 µM and the Vmax stood at 3.4e-06 µmol/min. In data set [6], the Km came to 1500 µM and the Vmax came to 2e-07 µmol/min.
